{"source": "patent US20250367225A1", "about": "(priority 2022, published 2025)", "key": {"[1]": {"conditions": "6 IV doses of 0.12 mg/kg, cancer patients; cited from earlier work"}, "lung mononuclear cells": {"system": "lung mononuclear cells", "assay": "Single-cell gene-expression analysis of lung mononuclear cells", "assay_type": "in vivo, BALB/c mice", "conditions": "2 μg IN; 24 h; lung CD45+ cells"}, "[2]": {"conditions": "up to 100 μg intramuscularly; cited from earlier work"}, "cytokines/chemokines": {"system": "cytokines/chemokines", "assay": "Cytokine/chemokine 31-Plex profile after intranasal administration", "assay_type": "in vivo, BALB/c mice", "conditions": "2 μg IN; one day after; BAL, nasal turbinate and lung homogenates, sera"}, "SARS-COV-2 (USA/WA1)": {"system": "SARS-COV-2 (USA/WA1)", "assay": "Direct antiviral effect against SARS-COV-2 in Vero E6 cells (CPE)", "assay_type": "cell-based", "conditions": "Vero E6, MOI 0.1, 70 h", "method": "After 30 min, SARS-COV-2 (USA/WA1) was added to each well to final MOI 0.1. Cells were incubated at 37 °C/5% CO2 for 70 h prior to scoring CPE. Percent inhibition was calculated from fold reduction in CPE over control wells receiving no drug. Remdesivir (RDV) was used as a positive control for the assay. Phosphatidylethanolamine (PE) and Biotin-phosphatidylethanolamine (B-PE) were used as a negative control. […] C57BL/6 mice (N=10) were given 2 μg of 7DW8-5 or saline by IN route 2 days before intranasal challenge with 5,000 pfu (lethal dose) of the PR8 strain. Kaplan-Meier Survival curve was plotted."}, "[3]": {"system": "ic-SARS-COV-2-mNeon infection in Huh7 cells", "assay_type": "cell-based, human", "conditions": "for inhibition of ic-SARS-COV-2-mNeon infection by supernatant of stimulated human iNKT cells: 1 μg/mL lipid, iNKT + HeLa-hCD1d 24 h, supernatant on Huh7 cells"}, "Thermostability (stated)": {"assay": "Thermostability (stated)", "assay_type": "physicochemical", "conditions": "stated in discussion, no test described"}, "splenocytes [4]": {"system": "splenocytes", "assay": "IFN-γ-secreting splenocytes in response to glycolipids in culture (hamster)", "assay_type": "cell-based", "excerpt": "(§1) FIGS. 12A-B show relative number of IFN-γ-secreting splenocytes in hamster versus mouse in response to glycolipids in culture.\n(§2) The relative number of IFN-γ-secreting splenocytes in hamster versus mouse in response to glycolipids in culture are shown in FIGS. 12A-B. 7DW8-5 administration affects IFN-γ-secreting splenocyte numbers in hamsters as shown in FIG. 12A. Cytokine induction"}, "mouse iNKT cells": {"system": "mouse iNKT cells", "conditions": "mouse iNKT cells in vitro; cited from earlier work"}, "[5]": {"assay": "Toxicity noted in hamsters in the current study", "assay_type": "in vivo", "excerpt": "(§3) Without being bound by theory, 7DW8-5 can be an agent for pre-exposure prophylaxis to prevent infections by SARS-COV-2, RSV, influenza virus, and possibly other clinically important respiratory viruses. It is a chemical compound that is thermostable and thus simple to ship and store, cheap to manufacture, and easy to administer intranasally. It is expected that 7DW8-5 is similarly effective in people. […] Second, iNKT cells constitute up to 1% of peripheral blood mononuclear cells in both humans and mice^38,39, although the variability is greater among humans^38."}, "human RSV A2 strain": {"system": "human RSV A2 strain", "assay_type": "in vivo, BALB/c mice", "conditions": "2 μg IN 2 days prior, 600,000 pfu RSV A2"}, "human iNKT cells": {"system": "human iNKT cells", "conditions": "human iNKT cells in vitro; cited from earlier work"}, "splenocytes [6]": {"system": "splenocytes", "assay": "IFN-γ-secreting splenocytes in response to glycolipids in culture (mouse)", "assay_type": "cell-based", "excerpt": "as §1, §2"}, "IFNγ": {"system": "IFNγ", "assay_type": "in vivo, BALB/c mice", "conditions": "2 μg IN; 24 h; nasal turbinate and lung homogenate supernatants, sera"}, "[7]": {"assay": "Toxicity noted in mice in the current study", "assay_type": "in vivo", "excerpt": "as §3"}, "[8]": {"system": "influenza A virus (H1N1) PR/8/34 (PR8) strain", "assay": "Influenza A PR8 challenge of C57BL/6 mice", "assay_type": "in vivo"}}, "note": "Entries after “also recorded” stand apart in the source; their conditions may differ. Read-outs that look alike come from different tables or passages of the source."}
{"smiles": "CCCCCCCCCCCCCCCCCCCCCCCCCC(=O)NC(CO[C@H]1O[C@H](CO)[C@H](O)[C@H](O)[C@H]1O)[C@H](O)[C@H](O)CCCCCCCCCCCCCC", "note": "(stereo partly drawn) [α-GalCer, N-[(3S,4R)-3,4-dihydroxy-1-[(2S,3R,4S,5R,6R)-3,4,5-trihydroxy-6-(hydroxymethyl)oxan-2-yl]oxyoctadecan-2-yl]hexacosanamide]", "values": [{"measurement": "toxicity", "setting": "[1]", "result": "without evidence of toxicity"}]}
{"smiles": "CCCCCCCCCCCCCC[C@@H](O)[C@@H](O)[C@H](CO[C@H]1O[C@H](CO)[C@H](O)[C@H](O)[C@H]1O)NC(=O)CCCCCCCCCCc1ccc(F)cc1", "note": "[7DW8-5]", "values": [{"measurement": "IFN-γ production in proliferative NK cells, T cells, iNKT cells (single-cell analysis)", "setting": "lung mononuclear cells", "result": "apparent shift toward IFN-γ production"}, {"measurement": "adverse reactions", "setting": "[2]", "result": "did not lead to any adverse reactions"}, {"measurement": "cytokines/chemokines incl. IFN-γ, IL-5, IL-6, IP-10, TNF-α, MCP1, MIG", "setting": "cytokines/chemokines", "result": "Marked upregulation"}, {"measurement": "direct antiviral activity against SARS-COV-2 in vitro", "setting": "SARS-COV-2 (USA/WA1)", "result": "no direct antiviral activity; also recorded: lack of a direct antiviral effect"}, {"measurement": "inhibition of ic-SARS-COV-2-mNeon infection by supernatant of stimulated human iNKT cells", "setting": "[3]", "result": "display anti-viral activity; also recorded: significantly inhibit"}, {"measurement": "inhibition by supernatant with neutralizing anti-human IFN-γ Ab added", "setting": "[3]; anti-human IFN-γ antibody 1 μg/mL", "result": "inhibited; also recorded: completely abolished"}, {"measurement": "thermostability", "setting": "Thermostability (stated)", "result": "thermostable"}, {"measurement": "IFN-γ-secreting splenocyte numbers", "setting": "splenocytes [4]", "result": "affects"}, {"measurement": "immunostimulatory activity compared with α-GalCer", "setting": "mouse iNKT cells", "result": "even more potent immunostimulatory activity"}, {"measurement": "toxicity", "setting": "[5]", "result": "lack of toxicity"}, {"measurement": "body weight", "setting": "human RSV A2 strain", "result": "significantly prevented weight loss"}, {"measurement": "virus replication in lung tissues", "setting": "human RSV A2 strain; day 4, TCID50 in Hep2 cells", "result": "inhibited virus replication; also recorded: decreased"}, {"measurement": "immunostimulatory activity", "setting": "human iNKT cells", "result": "potent stimulatory effect"}, {"measurement": "IFN-γ-secreting splenocytes", "setting": "splenocytes [6]", "result": "increases"}, {"measurement": "IFN-γ induction by ELISA", "setting": "IFNγ", "result": "No evidence of IFN-γ induction; also recorded: minimal level"}, {"measurement": "toxicity", "setting": "[7]", "result": "lack of toxicity"}, {"measurement": "body weight", "setting": "[8]; 2 μg IN 2 days prior, 5,000 pfu PR8, day 3", "result": "significantly maintained body weight"}, {"measurement": "body weight loss", "setting": "[8]; 2 μg IN one day before 200 pfu PR8, day 3 (FIG. 7)", "result": "lack of body weight loss"}, {"measurement": "body weight loss", "setting": "[8]; 2 μg IN, 5000 pfu PR8, monitored every day after challenge (FIG. 8C)", "result": "ameliorated"}, {"measurement": "survival", "setting": "[8]; 2 μg IN, lethal dose 5×10^3 PFU PR8, all control mice died by Day 10", "result": "8 of 10 and higher probability of survival"}]}
{"smiles": "CCCCCCCC/C=C\\CCCCCCCC(=O)OC[C@H](COP(=O)(O)OCCNC(=O)CCCCCN)OC(=O)CCCCCCC/C=C\\CCCCCCCC", "note": "[1,2-dioleoyl-sn-glycero-3-phosphoethanolamine-N-(hexanoylamine), reference compound]", "values": [{"measurement": "inhibition of ic-SARS-COV-2-mNeon infection by supernatant of stimulated human iNKT cells", "setting": "[3]", "result": "not"}]}
